PubChem BioAssay (NCI)
Several values for one entry are separate records, joined by “and”; a condition that tells them apart may be missing. Identical values can stand only once.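 Compound exposure: 48 hours, 5 concentrations, 96-well plates. Abbreviation: GI50, concentration required for 50% inhibition of growth. TGI: total growth inhibition.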 Activity calls are given as the source filed them. No stated cut-off is given here; in the data, active means GI50 below about 0.43 µM; inactive means the rest.

How the values were obtained:
Assay in all cases: NCI-60 cell line screen, 48 h
786-0 renal = system: 786-0 renal
A549 NSCLC = system: A549 NSCLC
ACHN renal = system: ACHN renal
CCRF-CEM leukemia = system: CCRF-CEM leukemia
COLO 205 colon = system: COLO 205 colon
DLD-1 colon = system: DLD-1 colon
DMS 114 small cell lung = system: DMS 114 small cell lung
DMS 273 small cell lung = system: DMS 273 small cell lung
HCC-2998 colon = system: HCC-2998 colon
HCT-116 colon = system: HCT-116 colon
HL-60(TB) leukemia = system: HL-60(TB) leukemia
HOP-62 NSCLC = system: HOP-62 NSCLC
HOP-92 NSCLC = system: HOP-92 NSCLC
IGROV1 ovarian = system: IGROV1 ovarian
K-562 leukemia = system: K-562 leukemia
KM12 colon = system: KM12 colon
KM20L2 colon = system: KM20L2 colon
LOX IMVI melanoma = system: LOX IMVI melanoma
LXFL 529 NSCLC = system: LXFL 529 NSCLC
M14 melanoma = system: M14 melanoma
M19-MEL melanoma = system: M19-MEL melanoma
MALME-3M melanoma = system: MALME-3M melanoma
MOLT-4 leukemia = system: MOLT-4 leukemia
NCI-H226 lung = system: NCI-H226 lung
NCI-H23 lung = system: NCI-H23 lung
NCI-H460 lung = system: NCI-H460 lung
NCI-H522 lung = system: NCI-H522 lung
OVCAR-3 ovarian = system: OVCAR-3 ovarian
OVCAR-4 ovarian = system: OVCAR-4 ovarian
OVCAR-5 ovarian = system: OVCAR-5 ovarian
OVCAR-8 ovarian = system: OVCAR-8 ovarian
RPMI-8226 leukemia = system: RPMI-8226 leukemia
RXF 393 renal = system: RXF 393 renal
RXF-631 renal = system: RXF-631 renal
SF-268 CNS = system: SF-268 CNS
SF-295 CNS = system: SF-295 CNS
SF-539 CNS = system: SF-539 CNS
SK-MEL-2 melanoma = system: SK-MEL-2 melanoma
SK-MEL-28 melanoma = system: SK-MEL-28 melanoma
SK-MEL-5 melanoma = system: SK-MEL-5 melanoma
SK-OV-3 ovarian = system: SK-OV-3 ovarian
SN12C renal = system: SN12C renal
SNB-19 CNS = system: SNB-19 CNS
SNB-75 CNS = system: SNB-75 CNS
SNB-78 CNS = system: SNB-78 CNS
SW-620 colon = system: SW-620 colon
TK-10 renal = system: TK-10 renal
U251 CNS = system: U251 CNS
UACC-257 melanoma = system: UACC-257 melanoma
UACC-62 melanoma = system: UACC-62 melanoma
UO-31 renal = system: UO-31 renal
XF 498 CNS = system: XF 498 CNS
A498 renal = system: A498 renal
BT-549 breast = system: BT-549 breast
CAKI-1 renal = system: CAKI-1 renal
DU-145 prostate = system: DU-145 prostate
EKVX NSCLC = system: EKVX NSCLC
HCT-15 colon = system: HCT-15 colon
HS 578T breast = system: HS 578T breast
HT29 colon = system: HT29 colon
MCF7 breast = system: MCF7 breast
MDA-MB-231 breast = system: MDA-MB-231 breast
MDA-MB-435 = system: MDA-MB-435
MDA-N = system: MDA-N
PC-3 prostate = system: PC-3 prostate
SR leukemia = system: SR leukemia
T-47D breast = system: T-47D breast

**Q.** `C=CCCCCC1CCC2CCC(CCCC)N12` (centres undefined) was tested. Which outcome (786-0 renal) did it give?
**A.** inactive

**Q.** And the outcome (A549 NSCLC)?
**A.** inactive

**Q.** And the outcome (ACHN renal)?
**A.** inactive

**Q.** What about the outcome (CCRF-CEM leukemia) of the same molecule?
**A.** inactive

**Q.** And the outcome (COLO 205 colon)?
**A.** inactive

**Q.** What about the outcome (DLD-1 colon) of the same molecule?
**A.** inactive

**Q.** What about the outcome (DMS 114 small cell lung) of the same molecule?
**A.** inactive

**Q.** And the outcome (DMS 273 small cell lung)?
**A.** inactive

**Q.** What about the outcome (HCC-2998 colon) of the same molecule?
**A.** inactive

**Q.** And the outcome (HCT-116 colon)?
**A.** inactive

**Q.** What about the outcome (HL-60(TB) leukemia) of the same molecule?
**A.** inactive

**Q.** What about the outcome (HOP-62 NSCLC) of the same molecule?
**A.** inactive

**Q.** What about the outcome (HOP-92 NSCLC) of the same molecule?
**A.** inactive

**Q.** What about the outcome (IGROV1 ovarian) of the same molecule?
**A.** inactive

**Q.** What about the outcome (K-562 leukemia) of the same molecule?
**A.** inactive

**Q.** What about the outcome (KM12 colon) of the same molecule?
**A.** inactive

**Q.** What about the outcome (KM20L2 colon) of the same molecule?
**A.** inactive

**Q.** And the outcome (LOX IMVI melanoma)?
**A.** inactive

**Q.** And the outcome (LXFL 529 NSCLC)?
**A.** inactive

**Q.** And the outcome (M14 melanoma)?
**A.** inactive

**Q.** What about the outcome (M19-MEL melanoma) of the same molecule?
**A.** inactive

**Q.** And the outcome (MALME-3M melanoma)?
**A.** inactive

**Q.** What about the outcome (MOLT-4 leukemia) of the same molecule?
**A.** inactive

**Q.** What about the outcome (NCI-H226 lung) of the same molecule?
**A.** inactive

**Q.** What about the outcome (NCI-H23 lung) of the same molecule?
**A.** inactive

**Q.** What about the outcome (NCI-H460 lung) of the same molecule?
**A.** inactive

**Q.** What about the outcome (NCI-H522 lung) of the same molecule?
**A.** inactive

**Q.** What about the outcome (OVCAR-3 ovarian) of the same molecule?
**A.** inactive

**Q.** And the outcome (OVCAR-4 ovarian)?
**A.** inactive

**Q.** What about the outcome (OVCAR-5 ovarian) of the same molecule?
**A.** inactive

**Q.** And the outcome (OVCAR-8 ovarian)?
**A.** inactive

**Q.** And the outcome (RPMI-8226 leukemia)?
**A.** inactive

**Q.** What about the outcome (RXF 393 renal) of the same molecule?
**A.** inactive

**Q.** What about the outcome (RXF-631 renal) of the same molecule?
**A.** inactive

**Q.** What about the outcome (SF-268 CNS) of the same molecule?
**A.** inactive

**Q.** What about the outcome (SF-295 CNS) of the same molecule?
**A.** inactive

**Q.** And the outcome (SF-539 CNS)?
**A.** inactive

**Q.** And the outcome (SK-MEL-2 melanoma)?
**A.** inactive

**Q.** And the outcome (SK-MEL-28 melanoma)?
**A.** inactive

**Q.** And the outcome (SK-MEL-5 melanoma)?
**A.** inactive

**Q.** What about the outcome (SK-OV-3 ovarian) of the same molecule?
**A.** inactive

**Q.** What about the outcome (SN12C renal) of the same molecule?
**A.** inactive

**Q.** What about the outcome (SNB-19 CNS) of the same molecule?
**A.** inactive

**Q.** And the outcome (SNB-75 CNS)?
**A.** inactive

**Q.** What about the outcome (SNB-78 CNS) of the same molecule?
**A.** inactive

**Q.** And the outcome (SW-620 colon)?
**A.** inactive

**Q.** What about the outcome (TK-10 renal) of the same molecule?
**A.** inactive

**Q.** And the outcome (U251 CNS)?
**A.** inactive

**Q.** And the outcome (UACC-257 melanoma)?
**A.** inactive

**Q.** And the outcome (UACC-62 melanoma)?
**A.** inactive

**Q.** And the outcome (UO-31 renal)?
**A.** inactive

**Q.** What about the outcome (XF 498 CNS) of the same molecule?
**A.** inactive

**Q.** What does the source list for `O=[N+]([O-])c1cccc2nc3ccccc3c(NCCN(CCO)CCO)c12`?
**A.** TGI (786-0 renal): 29.6 nM; TGI (A498 renal): 11.6 nM; TGI (A549 NSCLC): 33.4 nM; TGI (ACHN renal): 20.5 nM and 34.5 nM; TGI (BT-549 breast): 8.75 nM; TGI (CAKI-1 renal): 23.2 nM and 62.2 nM; GI50 (CCRF-CEM leukemia): 15.6 nM; TGI (CCRF-CEM leukemia): 109 nM; TGI (COLO 205 colon): 14.6 nM; TGI (DLD-1 colon): 65.8 nM and 580 nM; TGI (DMS 273 small cell lung): 42.2 nM and 24.6 nM; TGI (DU-145 prostate): 10.8 nM; GI50 (EKVX NSCLC): 12.8 nM; TGI (EKVX NSCLC): 41.1 nM and 52.4 nM; TGI (HCC-2998 colon): 6.74 nM; TGI (HCT-116 colon): 31.1 nM; TGI (HCT-15 colon): 66.8 nM and 169 nM; TGI (HOP-62 NSCLC): 9.91 nM; TGI (HOP-92 NSCLC): 17.1 nM; TGI (HS 578T breast): 30.8 nM; TGI (HT29 colon): 20.2 nM; TGI (IGROV1 ovarian): 26.5 nM; GI50 (K-562 leukemia): 4.76 nM; TGI (K-562 leukemia): 28.3 nM; TGI (KM12 colon): 20.6 nM; TGI (KM20L2 colon): 69 nM and 29 nM; GI50 (LOX IMVI melanoma): 11.8 nM; TGI (LOX IMVI melanoma): 31.9 nM and 33.1 nM; TGI (LXFL 529 NSCLC): 108 nM and 24.3 nM; TGI (M14 melanoma): 8.21 nM; TGI (MALME-3M melanoma): 6.49 nM; TGI (MCF7 breast): 32.2 nM; TGI (MDA-MB-231 breast): 9.7 nM; TGI (MDA-MB-435): 2.83 nM; TGI (MDA-N): 2.9 nM; GI50 (MOLT-4 leukemia): 4.13 nM; TGI (MOLT-4 leukemia): 90.3 nM; TGI (NCI-H226 lung): 4.1 nM and 19.3 nM; TGI (NCI-H23 lung): 5.83 nM; TGI (NCI-H460 lung): 8.91 nM; TGI (NCI-H522 lung): 3.89 nM; TGI (OVCAR-3 ovarian): 14.4 nM; TGI (OVCAR-4 ovarian): 14.7 nM and 81.2 nM; TGI (OVCAR-5 ovarian): 23.4 nM; TGI (OVCAR-8 ovarian): 23.1 nM and 16.6 nM; TGI (PC-3 prostate): 10.9 nM; TGI (RPMI-8226 leukemia): 97.1 nM; TGI (RXF 393 renal): 4.47 nM; TGI (RXF-631 renal): 108 nM and 40.5 nM; TGI (SF-268 CNS): 29.6 nM and 113 nM; TGI (SF-295 CNS): 54.9 nM and 17 nM; GI50 (SF-539 CNS): 13.7 nM; TGI (SF-539 CNS): 26.6 nM and 59.4 nM; TGI (SK-MEL-2 melanoma): 10.2 nM; GI50 (SK-MEL-28 melanoma): 10.3 nM; TGI (SK-MEL-28 melanoma): 27 nM and 23 nM; TGI (SK-MEL-5 melanoma): 5.74 nM and 13 nM; TGI (SK-OV-3 ovarian): 177 nM; TGI (SN12C renal): 28.7 nM and 85.9 nM; TGI (SNB-19 CNS): 108 nM and 346 nM; TGI (SNB-75 CNS): 28.6 nM; TGI (SNB-78 CNS): 194 nM and 52.3 nM; TGI (SR leukemia): 110 nM; TGI (SW-620 colon): 23.5 nM and 111 nM; TGI (T-47D breast): 114 nM; TGI (TK-10 renal): 138 nM; TGI (U251 CNS): 26.1 nM; GI50 (UACC-257 melanoma): 49.8 nM; TGI (UACC-257 melanoma): 224 nM and 23.8 nM; TGI (UACC-62 melanoma): 11.4 nM; GI50 (UO-31 renal): 257 nM; TGI (XF 498 CNS): 24 nM
